In patent US20220306659A1, “COMPOUND INHIBITING AND INDUCING DEGRADATION OF EGFR AND ALK” (BEIJING TIDE PHARMACEUTICAL CO., LTD., priority 2019, published 2022):

Tests used:
[1] = target: Ba/F3(EGFR^L858R/T790M/C797S) cells (Homo sapiens, UniProt P00533, T790M/C797S/L858R, cells depend on it); assay: Assay of activity on Ba/F3 cells (CTG, 72 h); type: cell-based; conditions: read-out: IC50 (nM) Ba/F3 (EGFR^L858R/T790M/C797S)
Outline: (§1)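 Ba/F3 cells dependent on each EGFR triple mutant were exposed to 3-fold compound dilutions for 72 h at 37° C, 5% CO2, with CellTiter-Glo luminescence as the read-out.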

EGFR^L858R/T790M/C797S [2] = target: T1, EGFR^L858R/T790M/C797S (Homo sapiens, UniProt P00533, C797S/L858R/T790M); assay: Assay of activity of compounds to induce EGFR protein degradation (Alpha counts); type: cell-based; set-up: expressed in transfected cells; host or cells: Ba/F3; conditions: 24 h
Description: (§2) Assay of activity of compounds to induce EGFR^58R/IT790M/C797S and EGFR^Dell9/T790M/C797S protein degradation
(§3) In order to further explain the reason why the compounds of the present disclosure have inhibitory activity on Ba/F3(EGFR^58R/IT790M/C797S) and Ba/F3(EGFR^Dell9/T790M/C797S) cells, representative compounds C176 and C213 were selected to study the mechanism of action of the compounds, and observe their effects on EGFR^58R/IT790M/C797S and EGFR^Dell9/T790M/C797S protein levels.
(§4) Ba/F3(EGFR^58R/IT790M/C797S) and Ba/F3(EGFR^Dell9/T790M/C797S) cells were cultured according to the culture conditions recommended by ATCC, and analyzed by index.
(§5) Complete medium: 1640 medium, 10% FBS, 1× glutamine, 1× penicillin-streptomycin.
(§6) Culture conditions: incubated at 37° C., 95% air, 5% CO2 incubator.
(§7) (2) Compound stock solution: 10 mM stock solution in DMSO, stored at −20° C.
(§8) (3) Preparation of cell suspension:
(§9) The cells in the cell culture bottle were collected, and the cells with viability of >90% can be used in the assay. Cells were seeded in a 96-well plate with 40 μL cells, 1*10^5 cells/well.
(§10) Compound was diluted 3× with DMSO, starting at 1.0 mM (for EGFR^58R/IT790M/C797S assay) and 5 mM (for EGFR^Dell9/T790M/C797S assay), respectively, into 10 concentrations to prepare working solutions.
(§11) (5) Compound was pipetted into the 96-well plate to treat cells in a 37° C., 95% air, 5% CO2 incubator for 24 h.
(§12) 1) 1 μg/mL of EGF activated cells were treated for 10 min;
(§13) 2) After the compound treatment, lysis buffer was added to lyse cells; 10 μL of cell lysate was transferred to a 384-well plate; in addition, control lysate and negative control plus 5 μL of acceptor mix were added to the 384-well plate, and shaken on a shaker for 1-2 min;
(§14) 3) 5 μL of donor mix was added to each well; the 384-well plate was sealed, shaken on a shaker for 1-2 min, left in the dark at room temperature overnight, and read with an enzyme labeling instrument.
(§15) Alpha counts were fitted by logarithmic treatment of compound concentration with Graphpad Prism 8.0.
(§16) Y=Bottom+(Top−Bottom)/(1+10^((LogIC50−X)*HillSlope))
(§17) X: logarithm of compound concentration; Y: Alpha Counts.

EGFR^L858R/T790M/C797S [3] = target: T1, EGFR^L858R/T790M/C797S; assay: EGFR inhibitory activity assay (TK-substrate-biotin/ATP, 665/615 ratio); type: biochemical; conditions: kinase inhibition
Outline: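 HTRF kinase assay: enzyme preincubated with compound 10 min at room temperature, then reacted with biotinylated TK substrate and ATP for 40 min at room temperature.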

Ba/F3(EML4-ALK) cells = target: T2, Ba/F3(EML4-ALK) cells (Homo sapiens, UniProt Q9UM73); assay: Assay of activity on Ba/F3(EML4-ALK) cells (CTG, 72 h); type: cell-based; conditions: read-out: IC50 (nM) Ba/F3(EML4-ALK)
T2 construct: fused on or other part: Q9HC35 (Echinoderm microtubule-associated protein-like 4)
Outline: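 Ba/F3(EML4-ALK) cells, 700 per well, were exposed to 3-fold serial compound dilutions for 72 h at 37° C, 5% CO2, and viability was then read by CTG luminescence.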

[4] = target: Ba/F3(EGFR^Del19/T790M/C797S) cells (Homo sapiens, UniProt P00533, DEL746-750/T790M/C797S, cells depend on it); assay: Assay of activity on Ba/F3 cells (CTG, 72 h); type: cell-based; conditions: read-out: IC50 (nM) Ba/F3 (EGFR^Del19/T790M/C797S)
Outline: as §1

EGFR^Del19/T790M/C797S [5] = target: T3, EGFR^Del19/T790M/C797S (Homo sapiens, UniProt P00533, C797S/DEL746-750/T790M); assay: Assay of activity of compounds to induce EGFR protein degradation (Alpha counts); type: cell-based; set-up: expressed in transfected cells; host or cells: Ba/F3; conditions: 24 h
Description: as §2, §3, §4, §5, §6, §7, §8, §9, §10, §11, §12, §13, §14, §15, §16, §17

ALK^G1202R = ALK^G1202R (Homo sapiens, UniProt Q9UM73, G1202R); assay: Assay of activity on ALK kinase; type: biochemical; conditions: kinase inhibition
ALK = ALK (Homo sapiens, UniProt Q9UM73); assay: Assay of activity on ALK kinase; type: biochemical; conditions: kinase inhibition
EGFR^Del19/T790M/C797S [6] = target: T3, EGFR^Del19/T790M/C797S; assay: EGFR inhibitory activity assay (TK-substrate-biotin/ATP, 665/615 ratio); type: biochemical; conditions: kinase inhibition
Method: EGFR Inhibitory Activity Assay
(2) The plate was sealed, and centrifuged at 1,000 g for 1 min;
(4) 5 μl of the 2×EGFR protein working solution was added to the 384-well plate from step (2), centrifuged at 1,000 g for 30 s, and allowed to stand at room temperature (mixed thoroughly) for 10 min;
(6) 5 µL of the TK-substrate-biotin and ATP (the mixture prepared in step (5)) was added to the 384-well plate from step (4) to initiate the reaction;
(7) The mixture was centrifuged at 1,000 g for 30 s; the plate was sealed, and allowed to stand (and reacted) at room temperature for 40 min;
(10) The mixture was centrifuged at 1,000 g for 30 s, and allowed to stand (reacted) at room temperature for 1 h;
Formula of inhibition rate (%): […]
The nonlinear regression curve (dose response-variable slope) between the value of inhibition rate (%) and the logarithm of compound concentration was fitted with graphpad prism 8.0, the effect dose curve of compound was drawn, and the IC50 value was calculated.

Chain of ALK (Q9UM73 19-1620): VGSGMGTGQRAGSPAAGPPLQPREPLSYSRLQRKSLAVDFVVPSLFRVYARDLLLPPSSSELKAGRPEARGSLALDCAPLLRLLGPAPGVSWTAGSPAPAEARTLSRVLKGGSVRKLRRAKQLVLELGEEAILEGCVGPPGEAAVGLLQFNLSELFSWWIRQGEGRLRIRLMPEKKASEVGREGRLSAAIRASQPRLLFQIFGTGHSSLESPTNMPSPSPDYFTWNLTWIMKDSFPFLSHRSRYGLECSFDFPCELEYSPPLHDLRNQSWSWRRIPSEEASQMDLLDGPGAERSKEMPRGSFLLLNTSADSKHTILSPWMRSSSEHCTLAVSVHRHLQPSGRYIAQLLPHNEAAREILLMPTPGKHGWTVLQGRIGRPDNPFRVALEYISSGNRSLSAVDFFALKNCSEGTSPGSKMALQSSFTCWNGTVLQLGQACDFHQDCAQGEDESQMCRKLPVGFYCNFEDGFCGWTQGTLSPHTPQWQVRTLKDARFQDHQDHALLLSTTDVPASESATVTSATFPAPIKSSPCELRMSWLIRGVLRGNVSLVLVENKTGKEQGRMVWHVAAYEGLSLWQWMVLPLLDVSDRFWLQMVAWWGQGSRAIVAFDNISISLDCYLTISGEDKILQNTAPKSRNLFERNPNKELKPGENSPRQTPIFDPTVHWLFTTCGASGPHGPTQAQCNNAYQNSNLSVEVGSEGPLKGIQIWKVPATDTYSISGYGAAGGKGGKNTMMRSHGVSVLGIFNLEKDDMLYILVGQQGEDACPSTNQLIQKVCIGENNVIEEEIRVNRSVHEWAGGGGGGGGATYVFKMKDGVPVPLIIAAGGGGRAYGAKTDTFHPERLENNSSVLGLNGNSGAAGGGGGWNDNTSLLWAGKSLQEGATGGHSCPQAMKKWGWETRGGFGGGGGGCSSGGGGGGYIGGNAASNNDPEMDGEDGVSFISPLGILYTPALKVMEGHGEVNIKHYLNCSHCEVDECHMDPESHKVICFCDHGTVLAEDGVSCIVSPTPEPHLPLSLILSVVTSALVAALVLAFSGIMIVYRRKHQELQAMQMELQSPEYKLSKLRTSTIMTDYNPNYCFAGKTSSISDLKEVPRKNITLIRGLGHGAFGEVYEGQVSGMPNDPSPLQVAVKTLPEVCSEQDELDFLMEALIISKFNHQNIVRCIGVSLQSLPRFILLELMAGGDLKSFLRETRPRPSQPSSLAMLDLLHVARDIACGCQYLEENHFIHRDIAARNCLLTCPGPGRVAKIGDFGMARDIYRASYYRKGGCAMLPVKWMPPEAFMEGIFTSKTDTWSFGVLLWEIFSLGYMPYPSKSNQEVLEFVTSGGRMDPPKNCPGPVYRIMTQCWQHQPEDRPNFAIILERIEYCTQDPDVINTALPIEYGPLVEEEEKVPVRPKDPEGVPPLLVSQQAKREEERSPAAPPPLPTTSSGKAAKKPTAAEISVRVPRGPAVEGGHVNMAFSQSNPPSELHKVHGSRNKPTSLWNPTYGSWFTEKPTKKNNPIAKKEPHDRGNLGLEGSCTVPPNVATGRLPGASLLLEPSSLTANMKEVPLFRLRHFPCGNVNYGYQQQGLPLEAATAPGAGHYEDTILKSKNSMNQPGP
T2 sequence (Q9UM73 whole entry, change not shown, the tested form may be a part): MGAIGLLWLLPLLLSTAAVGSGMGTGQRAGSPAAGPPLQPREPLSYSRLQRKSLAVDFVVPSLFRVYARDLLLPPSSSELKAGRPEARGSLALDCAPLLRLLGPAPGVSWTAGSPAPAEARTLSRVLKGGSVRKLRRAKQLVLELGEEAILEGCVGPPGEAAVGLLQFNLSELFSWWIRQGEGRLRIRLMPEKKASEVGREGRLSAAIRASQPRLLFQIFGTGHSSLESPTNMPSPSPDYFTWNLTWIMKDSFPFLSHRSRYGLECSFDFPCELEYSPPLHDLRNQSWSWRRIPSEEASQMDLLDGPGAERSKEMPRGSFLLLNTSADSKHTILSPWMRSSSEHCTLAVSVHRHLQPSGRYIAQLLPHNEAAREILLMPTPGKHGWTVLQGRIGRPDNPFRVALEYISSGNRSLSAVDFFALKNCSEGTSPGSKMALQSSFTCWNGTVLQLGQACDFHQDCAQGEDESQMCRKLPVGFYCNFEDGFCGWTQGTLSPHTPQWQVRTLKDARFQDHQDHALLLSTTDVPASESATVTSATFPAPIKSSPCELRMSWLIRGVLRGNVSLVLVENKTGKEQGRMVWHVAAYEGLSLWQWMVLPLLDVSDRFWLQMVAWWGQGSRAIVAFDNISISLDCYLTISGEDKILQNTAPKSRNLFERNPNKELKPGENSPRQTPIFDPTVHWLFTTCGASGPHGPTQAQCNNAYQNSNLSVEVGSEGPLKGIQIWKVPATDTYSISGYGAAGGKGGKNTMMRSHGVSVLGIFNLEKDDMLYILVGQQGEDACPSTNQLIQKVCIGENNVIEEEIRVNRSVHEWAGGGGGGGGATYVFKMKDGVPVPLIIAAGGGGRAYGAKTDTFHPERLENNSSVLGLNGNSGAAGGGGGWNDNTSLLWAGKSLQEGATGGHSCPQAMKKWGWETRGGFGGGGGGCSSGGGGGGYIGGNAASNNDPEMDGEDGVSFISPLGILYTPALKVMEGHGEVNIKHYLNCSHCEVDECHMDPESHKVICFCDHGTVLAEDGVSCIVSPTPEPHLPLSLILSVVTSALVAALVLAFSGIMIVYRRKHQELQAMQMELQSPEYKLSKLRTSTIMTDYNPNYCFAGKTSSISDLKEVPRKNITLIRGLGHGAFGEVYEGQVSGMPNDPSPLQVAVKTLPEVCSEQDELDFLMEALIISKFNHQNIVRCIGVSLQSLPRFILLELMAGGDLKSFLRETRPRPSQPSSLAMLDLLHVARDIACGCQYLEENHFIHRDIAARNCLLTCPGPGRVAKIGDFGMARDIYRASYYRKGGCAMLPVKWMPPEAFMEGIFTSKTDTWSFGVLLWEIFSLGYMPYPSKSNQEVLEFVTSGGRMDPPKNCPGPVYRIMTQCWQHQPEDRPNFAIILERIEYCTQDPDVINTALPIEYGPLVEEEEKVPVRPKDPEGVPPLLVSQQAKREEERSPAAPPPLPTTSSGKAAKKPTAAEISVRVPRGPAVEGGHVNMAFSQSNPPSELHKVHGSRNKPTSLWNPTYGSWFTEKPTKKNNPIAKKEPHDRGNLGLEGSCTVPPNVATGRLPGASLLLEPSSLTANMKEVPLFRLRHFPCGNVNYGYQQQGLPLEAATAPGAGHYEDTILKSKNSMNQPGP
Chain of ALK^G1202R (Q9UM73 19-1620 G1202R): as the sequence (Q9UM73 19-1620) above, with G1184R counted along it

GI50 [1] [nM] | DC50 (EGFR^L858R/T790M/C797S [2]; Ba/F3(EGFR^L858R/T790M/C797S) cells, 0.01 nM to 1000 nM, FIG. 1, read-out: DC50 of EGFR^L858R/T790M/C797S protein level) [nM] | effect on EGFR^L858R/T790M/C797S protein level (in words) (EGFR^L858R/T790M/C797S [2]; Ba/F3 cells, dose-dependent) | IC50 (EGFR^L858R/T790M/C797S [3]) [nM] | GI50 (Ba/F3(EML4-ALK) cells) [nM] | GI50 [4] [nM] | DC50 (EGFR^Del19/T790M/C797S [5]; Ba/F3(EGFR^Del19/T790M/C797S) cells, 0.1 nM to 10000 nM, FIG. 2, read-out: DC50 of EGFR^Del19/T790M/C797S protein level) [nM] | effect on EGFR^Del19/T790M/C797S protein level (in words) (EGFR^Del19/T790M/C797S [5]; Ba/F3 cells, dose-dependent) | IC50 (ALK^G1202R) [nM] | IC50 (ALK) [nM] | IC50 (EGFR^Del19/T790M/C797S [6]) [nM] | Compound
1 to 100 | 31.4 | significantly reduces | 1 to 100 | 1 to 100 | – | – | – | – | – | – | COc1cc(N2CCC(N3CCN(CCOCC#Cc4cccc5c4CN(C4CCC(=O)NC4=O)C5=O)CC3)CC2)ccc1Nc1ncc(Cl)c(Nc2ccccc2P(C)(C)=O)n1 (centres unmarked) [Compound C176, 3-(4-(3-(2-(4-(1-(4-((5-chloro-4-((2-(dimethylphosphoryl)phenyl)amino)pyrimidin-2-yl)amino)-3-methoxyphenyl)piperidin-4-yl)piperazin-1-yl)ethoxy)prop-1-yn-1-yl)-1-oxoisoindolin-2-yl)piperidine-2,6-dione]
1 to 100 | – | – | – | – | 1 to 100 | 11.3 | significantly reduces | – | – | – | COc1cc(N2CCC3(CCN(CCCCCOc4cccc5c4CN(C4CCC(=O)NC4=O)C5=O)CC3)CC2)c(C)cc1Nc1ncc(Br)c(Nc2ccc3nccnc3c2P(C)(C)=O)n1 (centres unmarked) [Compound C213, 3-(4-((5-(9-(4-((5-bromo-4-((5-(dimethylphosphoryl)quinoxalin-6-yl)amino)pyrimidin-2-yl)amino)-5-methoxy-2-methylphenyl)-3,9-diazaspiro[5.5]undecan-3-yl)pentyl)oxy)-1-oxoisoindolin-2-yl)piperidine-2,6-dione]
101 to 200 | – | – | 1 to 100 | 1 to 100 | 1 to 100 | – | – | 101 to 200 | 1 to 100 | 1 to 100 | COc1cc(N2CCC(N3CCN(CCCCCCCCCOc4cccc5c4C(=O)N(C4CCC(=O)NC4=O)C5=O)CC3)CC2)ccc1Nc1ncc(Cl)c(Nc2ccccc2P(C)(C)=O)n1 (centres unmarked) [Compound A11, 4-((9-(4-(1-(4-((5-chloro-4-((2-(dimethylphosphoryl)phenyl)amino)pyrimidin-2-yl)amino)-3-methoxyphenyl)piperidin-4-yl)piperazin-1-yl)nonyl)oxy)-2-(2,6-dioxopiperidin-3-yl)isoindoline-1,3-dione]
1 to 100 | – | – | 1 to 100 | 1 to 100 | 1 to 100 | – | – | 101 to 200 | 1 to 100 | 1 to 100 | COc1cc(N2CCC(N3CCN(CCCCCCCOc4cccc5c4C(=O)N(C4CCC(=O)NC4=O)C5=O)CC3)CC2)ccc1Nc1ncc(Cl)c(Nc2ccccc2P(C)(C)=O)n1 (centres unmarked) [Compound A10, 4-((7-(4-(1-(4-((5-chloro-4-((2-(dimethylphosphoryl)phenyl)amino)pyrimidin-2-yl)amino)-3-methoxyphenyl)piperidin-4-yl)piperazin-1-yl)heptyl)oxy)-2-(2,6-dioxopiperidin-3-yl)isoindoline-1,3-dione]
1 to 100 | – | – | 1 to 100 | 1 to 100 | – | – | – | 201 to 300 | 1 to 100 | 1 to 100 | COc1cc(N2CCC(N3CCN(CCCCCC#Cc4cc(F)cc5c4CN(C4CCC(=O)NC4=O)C5=O)CC3)CC2)ccc1Nc1ncc(Cl)c(Nc2ccccc2P(C)(C)=O)n1 (centres unmarked) [Compound C167, 3-(4-(7-(4-(1-(4-((5-chloro-4-((2-(dimethylphosphoryl)phenyl)amino)pyrimidin-2-yl)amino)-3-methoxyphenyl)piperidin-4-yl)piperazin-1-yl)hept-1-yn-1-yl)-6-fluoro-1-oxoisoindolin-2-yl)piperidine-2,6-dione]
– | – | – | 1 to 100 | 1 to 100 | 1 to 100 | – | – | 201 to 300 | 1 to 100 | 1 to 100 | COc1cc(N2CCC(N3CCN(CCCCC#Cc4cccc5c4CN(C4CCC(=O)NC4=O)C5=O)CC3)CC2)ccc1Nc1ncc(Cl)c(Nc2ccccc2P(C)(C)=O)n1 (centres unmarked) [Compound C116, 3-(4-(6-(4-(1-(4-((5-chloro-4-((2-(dimethylphosphoryl)phenyl)amino)pyrimidin-2-yl)amino)-3-methoxyphenyl)piperidin-4-yl)piperazin-1-yl)hex-1-yn-1-yl)-1-oxoisoindolin-2-yl)piperidine-2,6-dione]
